Measured values published in US6653321B1, “Naphthylsulfonic acids and related compounds as glucose uptake agonists” (Telik, Inc., priority 1999, dated 2003).
Each block holds one compound with its values, some of them ahead of it.

Target: T1, β-kinase domain of the human insulin receptor (CKD) (Homo sapiens, UniProt P06213)
T1 construct: The complete β-kinase domain of the human insulin receptor (CKD); made in house
Assay: 32P-Cytoplasmic Kinase Domain (CKD) autophosphorylation assay
Type: biochemical
Conditions: 32P incorporated into CKD band, percentage of the vehicle (DMSO) level; 10 minutes at room temperature; compound concentration not given
Protocol: The complete β-kinase domain of the human insulin receptor (CKD) was expressed in, and purified from, baculovirus. CKD (4.0 μg/mL), in a solution of 50 mM Tris.HCl, 2 mM MnCl2, 10 mM MgCl2 (50 μl final volume), was combined with […] ATP, and 5 μCi ^32P-ATP (3000 Ci/mmol.). A test compound, or the vehicle (DMSO), was added to a final DMSO concentration of 1%. The mixture was incubated for 10 minutes at room temperature. The reaction was terminated by the addition of 10 μl of 200 mM EDTA. A 30 μl volume was removed, mixed with 5 μl of 6×Laemmeli sodium dodecyl sulfate (SDS) treatment buffer, and heated to 94° C. for 5 minutes. A 20 μl aliquot was then run on an SDS-PAGE gel. The radioactivity incorporated into the CKD band is quantified by phosphorimaging of the gel, or scintillation counting of the excised bands.
The potency of a compound for increasing phosphorylation is expressed as a percentage of the vehicle level.

T1 sequence (P06213 980-1382 limits assumed): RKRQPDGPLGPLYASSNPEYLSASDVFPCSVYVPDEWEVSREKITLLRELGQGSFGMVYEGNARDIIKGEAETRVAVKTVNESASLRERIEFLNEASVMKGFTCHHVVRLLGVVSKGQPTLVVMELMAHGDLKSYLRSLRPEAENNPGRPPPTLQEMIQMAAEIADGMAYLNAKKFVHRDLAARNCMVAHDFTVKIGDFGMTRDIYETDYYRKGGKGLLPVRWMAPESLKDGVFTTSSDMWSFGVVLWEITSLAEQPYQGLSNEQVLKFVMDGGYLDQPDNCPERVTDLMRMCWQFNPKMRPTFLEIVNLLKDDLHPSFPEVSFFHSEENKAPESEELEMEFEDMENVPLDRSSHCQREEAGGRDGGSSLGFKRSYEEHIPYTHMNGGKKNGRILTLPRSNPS

SMILES: Cc1ccccc1NC(=O)Nc1cc(C(=O)Nc2cccc3cc(S(=O)(=O)O)ccc23)cc(C(=O)Nc2cccc3cc(S(=O)(=O)O)ccc23)c1 [Compound 60, 5-[(3-{[(2-methylphenyl)amino]carbonylamino}-5-[N-(6-sulfonaphthyl)carbamoyl]phenyl)carbonylamino]naphthalene-2-sulfonic acid]
Activity (% Control): 97.5 % Control

SMILES: O=C(O)CC(C(=O)Nc1cc(C(=O)Nc2cccc3cc(S(=O)(=O)O)ccc23)cc(C(=O)Nc2cccc3cc(S(=O)(=O)O)ccc23)c1)c1ccccc1 (stereo not shown) [Compound 27, 3-(N-{3,5-bis[N-(6-sulfonaphthyl)carbamoyl]phenyl}carbamoyl)-3-phenylpropanoic acid]
Activity (% Control): 161.2 % Control

SMILES: COc1ccc(CC(=O)Nc2cc(C(=O)Nc3cccc4cc(S(=O)(=O)O)ccc34)cc(C(=O)Nc3cccc4cc(S(=O)(=O)O)ccc34)c2)cc1 [Compound 41, 5-({3-[2-(4-methoxyphenyl)acetylamino]-5-[N-(6-sulfonaphthyl)carbamoyl]phenyl}carbonylamino)naphthalene-2-sulfonic acid]
Activity (% Control): 136.6 % Control

SMILES: Cc1ccc(NC(=O)Nc2cc(C(=O)Nc3cccc4cc(S(=O)(=O)O)ccc34)cc(C(=O)Nc3cccc4cc(S(=O)(=O)O)ccc34)c2)cc1 [Compound 62, 5-[(3-{[(4-methylphenyl)amino]carbonylamino}-5-[N-(6-sulfonaphthyl)carbamoyl]phenyl)carbonylamino]naphthalene-2-sulfonic acid]
Activity (% Control): 102.8 % Control

SMILES: O=C(Nc1cccc2cc(S(=O)(=O)O)ccc12)c1cc(NS(=O)(=O)c2cccc3ccccc23)cc(C(=O)Nc2cccc3cc(S(=O)(=O)O)ccc23)c1 [Compound 54, 5-({3-[(1-naphthylsulfonyl)amino]-5-[N-(6-sulfonaphthyl)carbamoyl]phenyl}carbonylamino)naphthalene-2-sulfonic acid]
Activity (% Control): 46.5 % Control

SMILES: O=C(COc1ccccc1)Nc1cc(C(=O)Nc2cccc3cc(S(=O)(=O)O)ccc23)cc(C(=O)Nc2cccc3cc(S(=O)(=O)O)ccc23)c1 [Compound 38, 5-({3-(2-phenoxyacetylamino)-5-[N-(6-sulfonaphthyl)carbamoyl]phenyl}carbonylamino)naphthalene-2-sulfonic acid]
Activity (% Control): 84.7 % Control

SMILES: O=C(Nc1cccc2cc(S(=O)(=O)O)ccc12)c1cc(NS(=O)(=O)c2ccc(F)cc2)cc(C(=O)Nc2cccc3cc(S(=O)(=O)O)ccc23)c1 [Compound 51, 5-[(3-{[(4-fluorophenyl)sulfonyl]amino}-5-[N-(6-sulfonaphthyl)carbamoyl]phenyl)carbonylamino]naphthalene-2-sulfonic acid]
Activity (% Control): 133.0 % Control

SMILES: O=C(Nc1cccc2cc(S(=O)(=O)O)ccc12)c1cc(NS(=O)(=O)c2ccc(Cl)cc2)cc(C(=O)Nc2cccc3cc(S(=O)(=O)O)ccc23)c1 [Compound 50, 5-[(3-{[(4-chlorophenyl)sulfonyl]amino}-5-[N-(6-sulfonaphthyl)carbamoyl]phenyl)carbonylamino]naphthalene-2-sulfonic acid]
Activity (% Control): 123.8 % Control

SMILES: O=C(Nc1cccc2cc(S(=O)(=O)O)ccc12)c1cc(NS(=O)(=O)c2ccccc2)cc(C(=O)Nc2cccc3cc(S(=O)(=O)O)ccc23)c1 [Compound 48, 5-({3-[(phenylsulfonyl)amino]-5-[N-(6-sulfonaphthyl)carbamoyl]phenyl}carbonylamino)naphthalene-2-sulfonic acid]
Activity (% Control): 114.2 % Control

SMILES: COc1ccc(S(=O)(=O)Nc2cc(C(=O)Nc3cccc4cc(S(=O)(=O)O)ccc34)cc(C(=O)Nc3cccc4cc(S(=O)(=O)O)ccc34)c2)cc1 [Compound 52, 5-[(3-{[(4-methoxyphenyl)sulfonyl]amino}-5-[N-(6-sulfonaphthyl)carbamoyl]phenyl)carbonylamino]naphthalene-2-sulfonic acid]
Activity (% Control): 111.1 % Control

SMILES: O=C(Nc1cccc2cc(S(=O)(=O)O)ccc12)c1cc(NC(=O)c2cccc3ccccc23)cc(C(=O)Nc2cccc3cc(S(=O)(=O)O)ccc23)c1 [Compound 25, 5-({3-(1-naphthylcarbonylamino)-5-[N-(6-sulfonaphthyl)carbamoyl]phenyl}carbonylamino)naphthalene-2-sulfonic acid]
Activity (% Control): 83.7 % Control

Now from value to compound:

Activity (% Control): 84.9 % Control
SMILES: O=C(Nc1cccc2cc(S(=O)(=O)O)ccc12)c1cc(NC(=O)c2c(Cl)ccc(Cl)c2C(=O)O)cc(C(=O)Nc2cccc3cc(S(=O)(=O)O)ccc23)c1 [Compound 20]

Activity (% Control): 81.7 % Control
SMILES: O=C(Nc1cc(C(=O)Nc2cccc3cc(S(=O)(=O)O)ccc23)cc(C(=O)Nc2cccc3cc(S(=O)(=O)O)ccc23)c1)c1ccc([N+](=O)[O-])cc1 [Compound 14, 5-({3-[(4-nitrophenyl)carbonylamino]-5-[N-(6-sulfonaphthyl)carbamoyl]phenyl}carbonylamino)naphthalene-2-sulfonic acid]

Activity (% Control): 88.6 % Control
SMILES: O=C(Nc1cc(C(=O)Nc2cccc3cc(S(=O)(=O)O)ccc23)cc(C(=O)Nc2cccc3cc(S(=O)(=O)O)ccc23)c1)c1ccc(F)cc1 [Compound 12, 5-({3-[(4-fluorophenyl)carbonylamino]-5-[N-(6-sulfonaphthyl)carbamoyl]phenyl}carbonylamino)naphthalene-2-sulfonic acid]

Activity (% Control): 109.6 % Control
SMILES: O=C(Nc1cccc(Cl)c1)Nc1cc(C(=O)Nc2cccc3cc(S(=O)(=O)O)ccc23)cc(C(=O)Nc2cccc3cc(S(=O)(=O)O)ccc23)c1 [Compound 57, 5-[(3-{[(3-chlorophenyl)amino]carbonylamino}-5-[N-(6-sulfonaphthyl)carbamoyl]phenyl)carbonylamino]naphthalene-2-sulfonic acid]

Activity (% Control): 105.9 % Control
SMILES: O=C(Nc1cc(C(=O)Nc2cccc3cc(S(=O)(=O)O)ccc23)cc(C(=O)Nc2cccc3cc(S(=O)(=O)O)ccc23)c1)c1ccncc1 [Compound 35, 5-({3-(4-pyridylcarbonylamino)-5-[N-(6-sulfonaphthyl)carbamoyl]phenyl}carbonylamino)naphthalene-2-sulfonic acid]

Activity (% Control): 106.4 % Control
SMILES: O=C(Nc1ccc(Cl)cc1)Nc1cc(C(=O)Nc2cccc3cc(S(=O)(=O)O)ccc23)cc(C(=O)Nc2cccc3cc(S(=O)(=O)O)ccc23)c1 [Compound 58, 5-[(3-{[(4-chlorophenyl)amino]carbonylamino}-5-[N-(6-sulfonaphthyl)carbamoyl]phenyl)carbonylamino]naphthalene-2-sulfonic acid]

Activity (% Control): 84.6 % Control
SMILES: O=C(CC(C(=O)O)c1ccccc1)Nc1cc(C(=O)Nc2cccc3cc(S(=O)(=O)O)ccc23)cc(C(=O)Nc2cccc3cc(S(=O)(=O)O)ccc23)c1 (stereo not shown) [Compound 28, 3-(N-{3,5-bis[N-(6-sulfonaphthyl)carbamoyl]phenyl}carbamoyl)-2-phenylpropanoic acid]

Activity (% Control): 113.2 % Control
SMILES: O=C(Cc1ccccc1)Nc1cc(C(=O)Nc2cccc3cc(S(=O)(=O)O)ccc23)cc(C(=O)Nc2cccc3cc(S(=O)(=O)O)ccc23)c1 [Compound 37, 5-({3-(2-phenylacetylamino)-5-[N-(6-sulfonaphthyl)carbamoyl]phenyl}carbonylamino)naphthalene-2-sulfonic acid]
